Test results published in patent US20080194679A1, “Compositions and methods for increasing metabolic activity in animal tissue” (priority 2007, published 2008).
Marks after values point to notes of the source that are not given here.

Columns and labels:
[1] = Iron source fed to gestating sows; piglet blood hemoglobin, hematocrit and serum ferritin at farrowing; assay type: in vivo, sows / piglets; conditions: sows fed iron source daily from 4 weeks before farrowing
Text: Ferrous iron was chelated to various high nitrogen-containing amino acid chelates. Six grams of such a chelate formula (0.6 g Fe) was fed daily to gestating sows beginning 4 weeks before expected farrowing. Another group of gestating sows received 2 g daily of ferrous fumarate (0.67 g Fe) for the same period. One week prior to farrowing, the dosages of iron were doubled for each group.
At farrowing blood samples were taken from each piglet and assayed for hemoglobin, hematocrit, and serum ferritin. The hemoglobin and hematocrit represent current iron status but serum ferritin represents iron storage for future use.

[2] = chicks, 21 days, 40 mg zinc per day per kg feed
Description: (§1) A group of one day old chicks were administered 40 mg zinc per day per kg feed for 21 consecutive days. […] At the end of 21 days, all chicks in all groups were killed, freeze dried, and a whole body assay for zinc performed.

[3] = chicks, 21 Day, 40 mg zinc per day per kg feed
Description: as §1

[4] = Isotope study: deposition of 65zinc into male sex organ tissues after single intravenous dose; assay type: in vivo; conditions: zinc sufficient adult male rats, single I.V. dose 0.06 mg zinc, 24 hours post-dosing
Description: In an isotope study, three groups of zinc sufficient adult male rats (6/group) received a single intravenous (I.V.) dose of 0.06 mg zinc containing 10 microcurines of zinc chelated to either arginine or glycine or as zinc chloride (ZnCl2). The arginine contained about twice as much nitrogen bonded to the zinc atom as did glycine. The ZnCl2 had no nitrogen bonded to the zinc. Twenty four hours post-dosing, all animals were sacrificed and their testes, epididymis, and seminal vesicles were assayed for zinc. The male sex organs were targeted for these zinc assays because of the dominant role zinc plays in their proper functioning. In theory, the uptake of zinc from the three sources into the tissues should have been equivalent since all three sources were administered by I.V. and none of the animals was zinc deficient.
As noted above, arginine has about twice as much nitrogen in the ligand as glycine.

[5] = Tied-off ileum section dosed with 65Zn solution; 65Zn in liver, heart and spleen by liquid scintillation; assay type: in vivo; conditions: non-fasted rats, 1×10^−4M solution in tied off ileum section, 2 hours post dosing
Description: Non-fasted rats were first anesthetized and then their intestines exposed. A 10 cm section of the ileum was tied off at both ends extending 15 cm to 5 cm proximal to the ileoceal valve. At each end, a 0.5 cm incision was made allowing the tied off section to be thoroughly washed with Ringers solution via the incisions. A solution containing ^65ZnCl2 or ^65Zn Histidine (1×10^−4M) was introduced into the tied off section. At 2 hours post dosing, the rats were killed by cervical dislocation. Their livers, hearts, and spleens were taken, weighed, dissected, and assayed by liquid scintillation for ^65Zn.

Row | Compound | zinc retention in the body (in words) [2] | Body Weight [3] [g] | Gain/Feed [3] | also measured
1 | O=C([O-])/C=C/C(=O)[O-].[Fe+2] [Ferrous Fumarate, ferrous fumarate] |  |  |  | Serum Ferritin ([1]; a/b P < 0.01): 20.1^b ng/ml; Hematocrit ([1]; doubled in the last week): 33.2%; Hemoglobin ([1]; doubled in the last week): 9.7 g/dL
2 | NCC(=O)[O-].NCC(=O)[O-].[Zn+2] [Zn Bisglycinate (2:1), zinc bisglycinate (2:1)] | increased to some degree | 812.55 | .078 g | 
3 | O=[N+]([O-])[O-].O=[N+]([O-])[O-].[Zn+2] [Zn Nitrate, zinc nitrate] | similar | 734.98 | 0.74 g | 
4 | [Cl-].[Cl-].[Zn+2] [^65Zn Chloride, zinc chloride] |  |  |  | Deposition of ^65zinc into tissue: Epididymis ([4]; epididymis): Negligible; Deposition of ^65zinc into tissue: Seminal Vesicle ([4]; seminal vesicle): Negligible; Deposition of ^65zinc into tissue: Testes ([4]; testes): Negligible; ^65Zn in tissue: Heart ([5]; heart): 1.00 ± 0.33 number × 10^−10 Zn/gm; ^65Zn in tissue: Liver ([5]; liver): 8.67 ± 5.67 number × 10^−10 Zn/gm; ^65Zn in tissue: Spleen ([5]; spleen): 3.50 ± 0.25 number × 10^−10 Zn/gm
5 | zinc bisarginate (2:1) [Zn Bisarginate (2:1)] | increased over zinc bisglycinate (2:1) significantly | 829.15 | .078 g | 
6 | zinc glycinate (1:1) [Zn Glycinate (1:1)] | similar | 817.08 | 0.77 g | 
